Here are results for 19 compounds from ChEMBL document CHEMBL3039007, “Structure-based identification of OATP1B1/3 inhibitors” (Mol Pharmacol, 2013).

The target of series [1] is T1, Solute carrier organic anion transporter family member 1B1 (Homo sapiens, UniProt Q9Y6L6).
T1 sequence (Q9Y6L6 whole entry): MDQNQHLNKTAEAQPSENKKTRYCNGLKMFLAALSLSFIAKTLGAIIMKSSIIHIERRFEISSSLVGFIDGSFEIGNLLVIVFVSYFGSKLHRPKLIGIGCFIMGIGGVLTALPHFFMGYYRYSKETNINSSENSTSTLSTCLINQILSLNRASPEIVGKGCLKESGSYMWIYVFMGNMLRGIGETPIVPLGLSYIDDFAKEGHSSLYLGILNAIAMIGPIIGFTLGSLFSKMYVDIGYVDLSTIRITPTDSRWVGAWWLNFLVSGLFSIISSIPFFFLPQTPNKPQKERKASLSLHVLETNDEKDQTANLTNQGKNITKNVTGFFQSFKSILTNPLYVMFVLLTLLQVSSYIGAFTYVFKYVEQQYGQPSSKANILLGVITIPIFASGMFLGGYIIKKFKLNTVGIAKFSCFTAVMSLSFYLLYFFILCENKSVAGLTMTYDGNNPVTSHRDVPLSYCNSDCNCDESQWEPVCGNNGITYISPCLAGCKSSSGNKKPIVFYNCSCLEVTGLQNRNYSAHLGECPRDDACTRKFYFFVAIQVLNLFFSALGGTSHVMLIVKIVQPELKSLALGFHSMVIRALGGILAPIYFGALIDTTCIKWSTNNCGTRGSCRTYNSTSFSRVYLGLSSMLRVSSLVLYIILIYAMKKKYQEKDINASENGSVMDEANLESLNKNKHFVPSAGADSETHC
Conditions: chinese hamster, cho, 10 µM.

Series [2] deals with T2, Solute carrier organic anion transporter family member 1B3 (Homo sapiens, UniProt Q9NPD5).
T2 sequence (Q9NPD5 whole entry): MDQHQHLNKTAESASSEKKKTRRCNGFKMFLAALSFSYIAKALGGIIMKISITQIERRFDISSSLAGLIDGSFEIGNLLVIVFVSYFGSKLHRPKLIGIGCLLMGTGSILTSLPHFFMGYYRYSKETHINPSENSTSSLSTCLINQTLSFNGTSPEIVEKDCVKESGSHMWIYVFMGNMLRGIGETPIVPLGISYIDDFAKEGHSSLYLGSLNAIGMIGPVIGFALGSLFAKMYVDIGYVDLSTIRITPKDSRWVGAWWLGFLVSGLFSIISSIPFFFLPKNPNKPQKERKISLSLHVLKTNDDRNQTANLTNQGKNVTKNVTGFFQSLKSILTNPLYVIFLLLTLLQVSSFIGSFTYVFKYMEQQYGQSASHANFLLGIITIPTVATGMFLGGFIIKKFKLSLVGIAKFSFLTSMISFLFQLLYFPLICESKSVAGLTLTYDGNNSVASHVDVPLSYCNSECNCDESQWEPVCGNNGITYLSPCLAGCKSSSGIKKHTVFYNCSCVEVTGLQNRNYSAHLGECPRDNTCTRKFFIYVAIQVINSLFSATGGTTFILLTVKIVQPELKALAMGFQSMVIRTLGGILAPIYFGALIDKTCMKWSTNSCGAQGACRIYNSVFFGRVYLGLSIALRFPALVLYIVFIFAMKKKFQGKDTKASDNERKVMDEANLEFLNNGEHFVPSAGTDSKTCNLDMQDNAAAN
The following applies: chinese hamster, cho, 10 µM.

As a reminder, the residual activity is the signal under treatment as a percentage of the control signal. As for `[O-][n+]1ccccc1[S][Zn][S]c1cccc[n+]1[O-]` [PYRITHIONE ZINC], the residual activity in series [1] is given as 92.52%; in series [2], 94.54%.

Consider `CCC1(CC)C(=O)C=CNC1=O` [PYRITHYLDIONE], for which the residual activity in series [1] was determined as 106.5%; in series [2], 101.3%.

Consider `CC[C@@]1(O)C[C@H](O[C@H]2C[C@H](N(C)C)[C@H](O)[C@H](C)O2)c2c(cc3c(c2O)C(=O)c2c(O)ccc(O)c2C3=O)[C@H]1C(=O)OC` [PYRROMYCIN], for which the residual activity turned out to be 90.45% in series [1] and 81.89% in series [2].

Regarding `Cc1cc(/C=C/c2ccc3cc(N(C)C)ccc3[n+]2C)c(C)n1-c1ccccc1.Cc1cc(/C=C/c2ccc3cc(N(C)C)ccc3[n+]2C)c(C)n1-c1ccccc1.O=C([O-])c1cc2ccccc2c(Cc2c(O)c(C(=O)[O-])cc3ccccc23)c1O` [PYRVINIUM PAMOATE], the values for the residual activity in series [1] and in series [2] were 42.61% and 32.66%, respectively.

For the compound `CO[C@H]1[C@H](O)[C@@H](O)[C@H](O)[C@H](O)[C@H]1O` [QUEBRACHITOL], the residual activity in series [1] was 101.4%; in series [2], 106.9%.

Turning to `O=c1c(O)c(-c2ccc(O)c(O)c2)oc2cc(O)cc(O)c12` [QUERCETIN], the residual activity is listed as 47.09% in series [1] and 122.6% in series [2].

Turning to `C[C@@H]1O[C@@H](Oc2c(-c3ccc(O)c(O)c3)oc3cc(O)cc(O)c3c2=O)[C@H](O)[C@H](O)[C@H]1O` [QUERCITRIN], the residual activity in series [1] was 107.2%; in series [2], 114.6%.

`CCN(CC)CCCC(C)Nc1c2ccc(Cl)cc2nc2ccc(OC)cc12.Cl.Cl.O.O` (stereo not drawn) [QUINACRINE HYDROCHLORIDE]: the results for the residual activity in series [1] and in series [2] were 83.49% and 95.69%, respectively.

As to `O=C1c2ccc(O)c(O)c2C(=O)c2c(O)ccc(O)c21` [QUINALIZARIN], the figures for the residual activity in series [1] and in series [2] were 57.07% and 75.87%, respectively.

Take `CCOC(=O)[C@H](CCc1ccccc1)N[C@@H](C)C(=O)N1Cc2ccccc2C[C@H]1C(=O)O.Cl` [QUINAPRIL HYDROCHLORIDE]: the residual activity was found to be 109.5% in series [1] and 98.34% in series [2].

As to `O=C(O)[C@]1(O)C[C@@H](O)[C@@H](O)[C@H](O)C1` [QUINIC ACID], the residual activity is 95.08% in series [1] and 98.01% in series [2].

As for `C=C[C@H]1CN2CC[C@H]1C[C@@H]2[C@@H](O)c1ccnc2ccc(OC)cc12.O=C(O)[C@H](O)[C@@H](O)[C@H](O)[C@H](O)CO` [QUINIDINE GLUCONATE], the residual activity was found to be 103.2% in series [1] and 122% in series [2].

`C=C[C@H]1CN2CC[C@H]1C[C@H]2[C@H](OC(=O)OCC)c1ccnc2ccc(OC)cc12` [QUININE ETHYLCARBONATE]: the residual activity is reported as 58.74% in series [1] and 64.19% in series [2].

`C=C[C@H]1CN2CC[C@H]1C[C@H]2[C@H](O)c1ccnc2ccc(OC)cc12.C=C[C@H]1CN2CC[C@H]1C[C@H]2[C@H](O)c1ccnc2ccc(OC)cc12.O.O.O=S(=O)(O)O` [QUININE SULFATE]: the residual activity in series [1] was determined as 92.08%; in series [2] it was 99.87%.

For `O=C(O)c1cccnc1C(=O)O` [QUINOLINIC ACID], the residual activity in series [1] was determined as 103.9%; in series [2], 104.2%.

Regarding `O=C(O)/C=C\C(=O)O.c1ccc2nc(N3CCNCC3)ccc2c1` [QUIPAZINE MALEATE], the residual activity in series [1] amounted to 102.6%; in series [2] it was 102.9%.

With `CNC(C)C(O)c1ccccc1.Cl` (stereo not drawn) [RACEPHEDRINE HYDROCHLORIDE], the residual activity in series [1] came to 70.72%; in series [2], 103.1%.

On to `CCC(=O)NCC[C@@H]1CCc2ccc3c(c21)CCO3` [RAMELTEON], for which the residual activity is on record as 127.6% in series [1] and 113.4% in series [2].

Regarding `Cc1c(NC(C)C)c(=O)n(-c2ccccc2)n1C` [RAMIFENAZONE], the residual activity in series [1] is reported as 105.5%; in series [2] it was 89.79%.
